Assay results: article PMC7304070 (Journal of the American Chemical Society, 2020)

How the values were obtained:
[1] = Circular dichroism helicity; assay type: physicochemical; settings: for Helicity, Stabilized (S): CD, 10 μM in 1:1 water:acetonitrile, molar ellipticity at 222 nm, stabilized peptide
MDM2-GST = MDM2-GST (Homo sapiens, UniProt Q00987); experiment: Bacterial surface display; assay type: binding; settings: for BSD Kd Ratio (NS/S): non-stabilized / stabilized Kd on bacterial surface
[2] = biological target: MDM2 truncate (residues 10–118) (Homo sapiens, UniProt Q00987); experiment: Bio-layer interferometry; assay type: binding; settings: non-stabilized / stabilized Kd in solution (fold improvement upon stabilization)
MDM2 truncate (residues 10–118), sequence (Q00987 10-118): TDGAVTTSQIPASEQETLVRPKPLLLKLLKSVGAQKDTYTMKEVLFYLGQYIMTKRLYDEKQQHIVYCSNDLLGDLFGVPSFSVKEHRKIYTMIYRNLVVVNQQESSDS

MDM2-GST, sequence (Q00987 whole entry, the tested form may be a part): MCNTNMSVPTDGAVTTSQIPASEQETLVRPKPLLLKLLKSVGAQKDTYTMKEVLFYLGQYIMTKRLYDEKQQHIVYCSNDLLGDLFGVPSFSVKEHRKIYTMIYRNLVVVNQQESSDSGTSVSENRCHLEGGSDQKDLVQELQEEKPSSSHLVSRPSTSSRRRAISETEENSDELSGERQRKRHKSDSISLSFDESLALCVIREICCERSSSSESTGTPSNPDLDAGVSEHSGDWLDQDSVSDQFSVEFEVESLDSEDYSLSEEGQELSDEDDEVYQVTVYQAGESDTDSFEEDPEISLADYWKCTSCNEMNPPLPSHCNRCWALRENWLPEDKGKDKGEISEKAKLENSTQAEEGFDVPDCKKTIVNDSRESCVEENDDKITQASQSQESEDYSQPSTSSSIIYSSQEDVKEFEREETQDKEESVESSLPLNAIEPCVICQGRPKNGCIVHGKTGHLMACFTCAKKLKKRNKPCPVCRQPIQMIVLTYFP

Row | Sequence | Helicity, Stabilized (S) [1] | BSD Kd Ratio (NS/S) (MDM2-GST) | BLI Kd Ratio (NS/S) [2] | other results
1 | ETAXDLWRLLXEN (sidechain bridge or staple) [SPD-M0-E(−2)-F19A] | 50% |  |  | binding as displayed on the bacterial cell surface (MDM2-GST; negative controls, Figure S1): did not exhibit measurable binding
2 | ETFXDLWRLLXEN (sidechain bridge or staple) [SPD-M0-E(−2)] | 53% |  |  | 

The next lines start with results.

Row | Helicity, Stabilized (S) [1] | BSD Kd Ratio (NS/S) (MDM2-GST) | BLI Kd Ratio (NS/S) [2] | Sequence | other results
3 | 18% | 1.4 | 4.1 | GGTFXGYWADLXAF (sidechain bridge or staple) [SPD-M3-G1] | Helicity Ratio (S/NS) ([1]; stabilized / non-stabilized helicity): 1.1; improvement in affinity over the starting sequence SPD-M0-E(−2) (MDM2-GST; bacterial surface, stabilized, after 3 rounds of sorting, n = 3 independent trials of duplicates): ~5 fold
4 | 40% |  |  | QTFXDLWRLLXEN (sidechain bridge or staple) [SPD-M0-E(−1)] | 
5 | 41% |  |  | QTFXDLWRLLXQN (sidechain bridge or staple) [SPD-M0-E(0)] | 
6 |  | 6.6 | 9.4 | VLSFXDYWNLLXGS (sidechain bridge or staple) [SPD-M3-V1] | 
